In patent US10568879B2 (GALAPAGOS NV, priority 2015, dated 2020):

Experiments:
[1] = biological target: T1, GPR84 (Homo sapiens, UniProt Q9NQS5); assay: GPR84 [35S]GTPγS binding assay; type: biochemical; conditions: 3,3′-diindolylmethane at EC80; membranes from stable cell line over expressing GPR84
T1 construct: expressed in transfected cells
Method in brief: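 Antagonist-mode [35S]GTPγS binding on membranes from a GPR84-overexpressing stable line (GDP-preincubated), stimulated with 3,3′-diindolylmethane at EC80. Buffer 20 mM Tris pH 7.5, 5 mM MgCl2, 250 mM NaCl, saponin; 0.1 nM [35S]GTPγS, 90 min at room temperature, SPA bead read-out.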

[2] = system: human neutrophils; assay: Human neutrophil migration assay; type: cell-based; conditions: for IC50: Homo sapiens, Neutrophil, embelin at EC80 as chemotactic agent, 1 h at 37° C., read-out: Human neutrophil migration IC50
Experimental: The activity of GPR84 agonists and antagonists can therefore be assayed in a human neutrophil migration assay. The human neutrophil migration assay makes use of freshly isolated human neutrophils from buffy coats that are subsequently used in a functional chemotaxis assay setup. […] After 1 h of incubation at 37° C. and 5% CO2, the number of migrated neutrophils in the lower compartment can be quantified by measuring the ATP content using ATPlite™ Luminescence Assay System. A human buffy coat suspension is diluted with an equal volume of ice cold DPBS. 20 mL of the diluted buffy coat suspension is gently mixed with 4 mL of ACD buffer (140 mM citric acid, 200 mM sodium citrate and 220 mM dextrose). Then, 12 mL of a 6% dextran/0.9% NaCl solution (15 g dextran T2000 and 2.25 g NaCl dissolved in 250 mL H2O) is added to the mixture and the samples are inverted gently up to 20 times. The total volume is transferred to a new recipient and incubated at room temperature to allow sedimentation of red blood cells. The yellowish upper fraction is then transferred to a clean centrifugation tube and centrifuged for 12 min at 1300 rpm and 4° C. After centrifugation, the supernatant is discarded and the remaining cell pellet is rapidly resuspended in 12 mL of ice-cold H2O to perform a red blood cell lysis by osmotic burst. After 20 seconds, 4 mL of ice-cold 0.6 M KCl is added to restore salt concentration. Samples are mixed carefully and centrifuged for 6 min at 1300 rpm and 4° C. The supernatant is discarded and the red blood cell lysis procedure is repeated one more time. […] A neutrophil cell suspension of 8.9×10^6 cells per mL is prepared in chemotaxis buffer and 180 μL per well is plated in a 96-well V-bottom plate. 20 μL of test compound solution in chemotaxis buffer is added to the 180 μL cell suspension. The mixture is incubated at room temperature for 30 min with intermediate gentle resuspension of the cells after 15 min. […] After 1 h at 37° C., 5% CO2 in a humidified incubator, the upper plate of the Transwell® system is gently removed. […] After incubation, 270 μL of cell lysate is then transferred onto a white 96-well plate for quantification by a luminescence plate reader. The relative luminescent signal measured is considered linearly related to the number of cells having migrated from the upper compartment into the receiver well.

T1 sequence (Q9NQS5 whole entry): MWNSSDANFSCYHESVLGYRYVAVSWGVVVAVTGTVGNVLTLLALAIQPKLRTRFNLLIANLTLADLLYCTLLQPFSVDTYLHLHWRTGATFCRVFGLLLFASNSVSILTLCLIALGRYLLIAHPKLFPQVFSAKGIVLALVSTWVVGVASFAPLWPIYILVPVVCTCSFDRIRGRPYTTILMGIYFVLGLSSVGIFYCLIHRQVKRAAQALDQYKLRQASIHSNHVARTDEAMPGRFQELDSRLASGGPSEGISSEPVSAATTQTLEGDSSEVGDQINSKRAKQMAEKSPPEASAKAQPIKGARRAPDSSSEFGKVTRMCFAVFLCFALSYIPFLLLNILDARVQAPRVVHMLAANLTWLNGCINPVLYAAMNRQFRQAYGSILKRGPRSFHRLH

| Structure (SMILES) | IC50 [1] [nM] | IC50 [2] [nM] | neutrophil chemotaxis induced by GPR84 agonists [2] |
| --- | --- | --- | --- |
| COc1cc2c(cc1OC)-c1cc(=O)cc(NCC3CCCO3)n1CC2 (centres unmarked) [Compound 4, 9,10-Dimethoxy-4-[(tetrahydro-furan-2-ylmethyl)-amino]-6,7-dihydro-pyrido[2,1-a]isoquinolin-2-one] | > 1000 | > 1000 |  |
| COc1cc2c(cc1OC)-c1c(C)c(=O)cc(NC[C@@H]3COCCO3)n1CC2 [Compound 6, 4-[[(2R)-1,4-dioxan-2-yl]methylamino]-9,10-dimethoxy-1-methyl-6,7-dihydrobenzo[a]quinolizin-2-one] | 500 to 1000 | > 1000 |  |
| Cc1c2n(c(NCC3CCCO3)cc1=O)CCc1cc(OCC3CC3(F)F)ccc1-2 (centres unmarked) [Compound 7, 9-(2,2-Difluoro-cyclopropylmethoxy)-1-methyl-4-[(tetrahydro-furan-2-ylmethyl)-amino]-6,7-dihydro-pyrido[2,1-a]isoquinolin-2-one] | 0.01 to 100 | 100 to 500 |  |
| Cc1c2n(c(NCC3CCCO3)cc1=O)CCc1cc(OC3CCCO3)ccc1-2 (centres unmarked) [Compound 9, -Methyl-4-[(tetrahydro-furan-2-ylmethyl)-amino]-9-(tetrahydro-furan-2-yloxy)-6,7-dihydro-pyrido[2,1-a]isoquinolin-2-one] | 100 to 500 | 100 to 500 |  |
| Cc1c2n(c(NCC3CCCCO3)cc1=O)CCc1cc(OCC(F)F)ccc1-2 (centres unmarked) [Compound 13, 9-(2,2-difluoroethoxy)-1-methyl-4-(tetrahydropyran-2-ylmethylamino)-6,7-dihydrobenzo[a]quinolizin-2-one] | 100 to 500 | 100 to 500 |  |
| Cc1c2n(c(NCC3CCCCO3)cc1=O)CCc1cc(OCC(F)(F)F)ccc1-2 (centres unmarked) [Compound 14, 1-methyl-4-(tetrahydropyran-2-ylmethylamino)-9-(2,2,2-trifluoroethoxy)-6,7-dihydrobenzo[a]quinolizin-2-one] | 0.01 to 100 | 0.01 to 100 |  |
| Cc1c2n(c(NC[C@@H]3COCCO3)cc1=O)CCc1cc(OCc3ccccc3)ccc1-2 [Compound 34, 9-benzyloxy-4-[[(2R)-1,4-dioxan-2-yl]methylamino]-1-methyl-6,7-dihydrobenzo[a]quinolizin-2-one] |  | 0.01 to 100 |  |
| Cc1ccc(COc2ccc3c(c2)CCn2c(OC[C@@H]4COCCO4)cc(=O)c(C)c2-3)cn1 [Compound 52, 4-[[(2S)-1,4-dioxan-2-yl]methoxy]-1-methyl-9-[(6-methyl-3-pyridyl)methoxy]-6,7-dihydrobenzo[a]quinolizin-2-one] |  | 0.01 to 100 |  |
| Cc1c2n(c(OC[C@@H]3COCCO3)cc1=O)CCc1cc(N3CCN(C(=O)OC(C)(C)C)CC3)ccc1-2 [Compound 60, tert-butyl 4-[4-[[(2S)-1,4-dioxan-2-yl]methoxy]-1-methyl-2-oxo-6,7-dihydrobenzo[a]quinolizin-9-yl]piperazine-1-carboxylate] |  | 0.01 to 100 |  |
| Cc1c2n(c(OC[C@@H]3COCCO3)cc1=O)CCc1cc(C3CN(C(=O)OC(C)(C)C)C3)ccc1-2 [Compound 71, tert-butyl 3-[4-[[(2S)-1,4-dioxan-2-yl]methoxy]-1-methyl-2-oxo-6,7-dihydrobenzo[a]quinolizin-9-yl]azetidine-1-carboxylate] |  | 0.01 to 100 |  |
| Cc1c2n(c(OC[C@@H]3COCCO3)cc1=O)CCc1cc(OCCOC(F)(F)F)ccc1-2 [Compound 72, 4-[[(2S)-1,4-dioxan-2-yl]methoxy]-1-methyl-9-[2-(trifluoromethoxy)ethoxy]-6,7-dihydrobenzo[a]quinolizin-2-one] |  | 0.01 to 100 |  |
| Cc1c2n(c(OCC3COCCO3)cc1=O)CCc1cc(OCC(F)(F)F)ccc1-2 (centres unmarked) [Compound 90, 4-(1,4-dioxan-2-ylmethoxy)-1-methyl-9-(2,2,2-trifluoroethoxy)-6,7-dihydrobenzo[a]quinolizin-2-one] |  | 0.01 to 100 |  |
| CCOC(=O)N1CC(c2ccc3c(c2)CCn2c(OC[C@@H]4COCCO4)cc(=O)c(C)c2-3)C1 [Compound 147, ethyl 3-[4-[[(2S)-1,4-dioxan-2-yl]methoxy]-1-methyl-2-oxo-6,7-dihydrobenzo[a]quinolizin-9-yl]azetidine-1-carboxylate] | 0.01 to 100 |  |  |
| CCCCCCCCCC(=O)[O-].[Na+] [sodium decanoate, reference compound] |  |  | induce neutrophil chemotaxis |
| CCCCCCCCCCC(=O)[O-].[Na+] [sodium undecanoate, reference compound] |  |  | induce neutrophil chemotaxis |

More lines, main results first:

| IC50 [1] [nM] | IC50 [2] [nM] | Structure (SMILES) | neutrophil chemotaxis induced by GPR84 agonists [2] |
| --- | --- | --- | --- |
| 500 to 1000 |  | Cc1c2n(c(OC[C@@H]3COCCO3)cc1=O)CCc1cc(C3CN(C(=O)N(C)C)C3)ccc1-2 [Compound 148, 3-[4-[[(2S)-1,4-dioxan-2-yl]methoxy]-1-methyl-2-oxo-6,7-dihydrobenzo[a]quinolizin-9-yl]-N,N-dimethyl-azetidine-1-carboxamide] |  |
| 500 to 1000 |  | Cc1c2n(c(OC[C@@H]3COCCO3)cc1=O)CCc1cc(C3CN(C(=O)NC(C)C)C3)ccc1-2 [Compound 149, 3-[4-[[(2S)-1,4-dioxan-2-yl]methoxy]-1-methyl-2-oxo-6,7-dihydrobenzo[a]quinolizin-9-yl]-N-isopropyl-azetidine-1-carboxamide] |  |
| 500 to 1000 |  | Cc1c2n(c(OC[C@@H]3COCCO3)cc1=O)CCc1cc(OC3CN(C(=O)N(C)C)C3)ccc1-2 [Compound 150, 3-[[4-[[(2S)-1,4-dioxan-2-yl]methoxy]-1-methyl-2-oxo-6,7-dihydrobenzo[a]quinolizin-9-yl]oxy]-N,N-dimethyl-azetidine-1-carboxamide] |  |
| 500 to 1000 |  | Cc1c2n(c(OC[C@@H]3COCCO3)cc1=O)CCc1cc(OC3CN(C(=O)NC(C)C)C3)ccc1-2 [Compound 151] |  |
| 100 to 500 |  | Cc1c2n(c(OCC3CC(C)(C)O3)cc1=O)CCc1cc(OCc3ccccc3)ccc1-2 (centres unmarked) [Compound 152, 9-benzyloxy-4-[(4,4-dimethyloxetan-2-yl)methoxy]-1-methyl-6,7-dihydrobenzo[a]quinolizin-2-one] |  |
| 100 to 500 |  | Cc1c2n(c(OCC3(C)CCCO3)cc1=O)CCc1cc(OCc3ccccc3)ccc1-2 (centres unmarked) [Compound 153, 9-benzyloxy-1-methyl-4-[(2-methyltetrahydrofuran-2-yl)methoxy]-6,7-dihydrobenzo[a]quinolizin-2-one] |  |
| 0.01 to 100 |  | Cc1c2n(c(OCC3CCC(C)(C)O3)cc1=O)CCc1cc(OCc3ccccc3)ccc1-2 (centres unmarked) [Compound 154, 9-benzyloxy-4-[(5,5-dimethyltetrahydrofuran-2-yl)methoxy]-1-methyl-6,7-dihydrobenzo[a]quinolizin-2-one] |  |
| 0.01 to 100 |  | Cc1c2n(c(OC[C@@H]3COCCO3)cc1=O)CCc1cc(OCC(F)(F)C(F)(F)F)ccc1-2 [Compound 155, 4-[[(2S)-1,4-dioxan-2-yl]methoxy]-1-methyl-9-(2,2,3,3,3-pentafluoropropoxy)-6,7-dihydrobenzo[a]quinolizin-2-one] |  |
| 100 to 500 |  | Cc1c2n(c(OC[C@@H]3COCCO3)cc1=O)CCc1ccccc1-2 [Compound 156, 4-[[(2S)-1,4-dioxan-2-yl]methoxy]-1-methyl-6,7-dihydrobenzo[a]quinolizin-2-one] |  |
| 500 to 1000 |  | Cc1c2n(c(OC[C@@H]3COCCO3)cc1=O)CCc1cc(N3CCCC3=O)ccc1-2 [Compound 157, 4-[[(2S)-1,4-dioxan-2-yl]methoxy]-1-methyl-9-(2-oxopyrrolidin-1-yl)-6,7-dihydrobenzo[a]quinolizin-2-one] |  |
| 0.01 to 100 |  | Cc1c2n(c(OC[C@@H]3COCCO3)cc1=O)CCc1cc(OCCF)ccc1-2 [Compound 159, 4-[[(2S)-1,4-dioxan-2-yl]methoxy]-9-(2-fluoroethoxy)-1-methyl-6,7-dihydrobenzo[a]quinolizin-2-one] |  |
